Measurements from patent publication US20150045387A1, “Bi-Aromatic And Tri-Aromatic Compounds As NADPH Oxidase 2 (Nox2) Inhibitors” (The University of Surrey, priority 2011, published 2015).

Experiments:
[1] = test system: human pulmonary endothelial cells (HPMEC); test: normal versus high glucose level-induced O2.- production, lucigenin-chemiluminescence; type: cell-based; conditions: LMH001 5 μM, 24 h in culture, NADPH 100 μM
Method: FIG. 11 is a graph showing the effects of LMH001 in culture on normal glucose level versus high glucose level-induced O2.^− production by human pulmonary endothelial cells (HPMEC). HPMEC were cultured in the medium with normal level of glucose (5 mM) or with high level of glucose (40 mM) in the presence or absence of LMH001 (5 μM) for 24 h. Cells were harvested and cell homogenates were used for measuring NADPH (100 μM)-dependent O2.^− production by lucigenin-chemiluminescence (n=3 experiments).
O2^− production by different cell types was measured using lucigenin (5 μM)-chemiluminescence. A microplate luminometer (LumiStar, BMG) was used, which allows the examination of 96 samples at the same time with kinetic reading facilities. […] Dark-adapted lucigenin (5 μM) was added into the well through an auto-dispenser located in the dark chamber just before reading. The light emission was recorded over a 60 minute period and expressed as arbitrary MLU measured by the illuminometer. Each experiment was performed in triplicate and the mean of 3 blank readings was subtracted from each corrected value for each reading. […]
O2^− production was also studied using total cell homogenate (for the endothelial cells and the fibroblasts). […] Soluble protein concentration was determined using a kit from Bio-Rad Laboratories Ltd. (Hertfordshire, U.K.). […]

[2] = test system: mouse microvascular endothelial cells (SVEC4-10); test: cell viability by trypan blue exclusion and viable cell number counting, SVEC4-10; type: cell-based; conditions: SVEC4-10, LMH001 5 and 10 μM, 24 h, trypan blue exclusion
Method: FIG. 7 is a graph showing no cytotoxicity of LMH001 on living mouse microvascular endothelial cells (SVEC4-10) and human liver hepatocyte cells (HepG2), assessed by trypan blue exclusion and viable cell number counting. Cells were cultured with LMH001 (5 and 10 μM) for 24 h. Cell viabilities of SVEC4-10 cells and HepG2 cells in the presence of LMH001 (5 and 10 μM) were expressed as % of alive cells compared to cells in the absence of LMH001 (control, 100%). Results are presented as mean±SD (n=3).
The mouse lymph node microvascular endothelial cell line (SVEC4-10) was from the American Type Culture Collection (CRL-2167) and grown in DMEM, containing 10% (v/v) heat inactivated foetal calf serum, 100 U/mL penicillin and […] streptomycin, in a humidified atmosphere at 37° C. with 5% CO2.
Cell viability and membrane integrity in the presence and absence of LMH001 were assessed using the trypan blue exclusion assay as described previously (15). Briefly, cells (1×10^6) were seeded onto 10 cm^2 culture dishes and allowed to adhere for 4 hours in 10% (v/v) FCS medium. […] At the time of experiment, cells were harvested by 0.25% Trypsin/EDTA, pelleted, resuspended in serum free medium and counted using a haemocytometer in the presence of trypan blue (0.4%) solution. The number of viable cells was calculated as a percentage of total cells.

HepG2 cells = test: normal cell proliferation, MTS assay, HepG2; type: cell-based, human; conditions: HepG2, LMH001 up to 10 μM, 24 h
Method: A) SVEC4-10 cells and HepG2 cells were cultured in the presence or absence of LHM001 (0-10 μM) for 24 h and tested for cell proliferation using a MTS assay kit. B) HL-60 cells were cultured in the presence or absence of LMH001 (0-10 μM), and cell proliferation was examined at 6, 12 and 24 h of culture.
HepG2 is a human hepatocytic cell line (ATCC No. HB-8065) that was originally derived from liver tissue with a well differentiated hepatocellular carcinoma. HepG2 cells have been proven to be a suitable in vitro model system for the study of human hepatocytes, and the study of liver metabolism and toxicity. HepG2 cells were grown in DMEM, containing 10% (v/v) heat inactivated foetal calf serum, 100 U/mL penicillin and […] streptomycin, in a humidified atmosphere at 37° C. with 5% CO2.
The ex vivo proliferative capabilities of isolated BMSC or cultured cells were analyzed using the MTS proliferation assay. […] After 24 hours in culture medium containing LMH001 (0-10 μM), proliferation was assessed using the MTS (CellTiter 96 AQ; Promega, Madison, USA) assay according to the manufacturer's protocol. The absorbance at 490 nm was read using an ELISA plate reader (Perkin elmer), and the proliferation index calculated relative to the controls. The mean of 3 blank readings was subtracted from each corrected value.

Q: For `O=C(OCc1cccc(O)c1O)c1ccc(O)c(CO)c1` [LMH001, (2,3,-dihydroxyphenyl)methyl 4-hydroxy-3-(hydroxymethyl)benzoate], which “cell O2.- production under normal glucose levels” value ([1]; glucose 5 mM) is on record?
A: Its value is “no significant effect”.

Q: And the “high glucose level-induced O2.- production” value ([1]; glucose 40 mM)?
A: Its value is “inhibited completely”.

Q: And the “cell viability (% of alive cells vs control)” value [2]?
A: Its value is “no significant difference”.

Q: What about the “normal cell proliferation under physiological condition” value (HepG2 cells) of the same compound?
A: The value was “no significant effect”.
